According to patent US4820723A, “Disubstituted tetrazole leukotriene antagonists and methods for their use thereas” (Eli Lilly and Company, priority 1987, dated 1989):

Experiments:
[1] = system: LTD4 evoked ileal contractions; assay: LTD4 antagonism: inhibition of LTD4 evoked contractions of isolated guinea pig ileum; design: species or system Male, Hartley guinea pigs; settings: 5 min exposure to drug, 50% inhibition of LTD4 responses, 37° C.
Description: Male, Hartley guinea pigs weighing 200-450 grams were killed by decapitation. A section of terminal ileum was removed, the lumen cleaned, and the tissue divided into 2.5 cm segments. The ilea were mounted in 10 ml tissue baths containing Krebs-bicarbonate solution of the following composition in mmoles/liter: KCl, 4.6; CaCl2 ·2H2 O, 1.2; KH2 PO4, 1.2; MgSO4 ·7H2 O, 1.2; NaCl, 118.2; NaHCO3, 24.8; and dextrose, 10.0. The bath fluid was maintained at 37° C. and aerated with 95 percent oxygen and 5 percent CO2. In addition, the buffer contained 1×10^-6 M atropine to reduce ileal spontaneous activity. Isometric measurements were made with a Grass FT03C force-displacement transducer and recorded on a Grass polygraph as change in grams of force. A passive force of 0.5 g. was applied to the tissues. After an appropriate equilibration period, single submaximal control responses to pure LTD4 were obtained. Following a five minute exposure of the ileum to an experimental drug, the control concentration of LTD4 was added to the tissue bath. The response of the ileum to LTD4 in the presence of the drug was compared to the response in the absence of the drug. Various degrees of LTD4 antagonism were obtained using 2-4 different concentrations of an experimental compound on a single ileum.
Percent inhibition of LTD4 evoked ileal contractions

[2] = system: pressor response to leukotriene D4; assay: decrease of LTD4 pressor response in pithed rats; assay type: in vivo, Adult male Sprague-Dawley rats; settings: Rattus norvegicus, iv, 0.25 h, 15 minutes prior to leukotriene D4 challenge (10 μg/kg, i.v.); dose to decrease pressor response by 50%
Description: A further measure of the final product's activity is their ability to decrease the pressor response in pithed rats that are challenged by LTD4. This activity is measured by the following standard procedure
Adult male Sprague-Dawley rats, weighting approximately 300-500 grams, are anesthetized with pentobarbital sodium (60 mg/kg, i.p.). The trachea is cannulated and the rats are ventilated with room air delivered from a rodent respirator (Harvard, model 680; tidal volume of 1 ml/100 grams body weight, 60 cycles/minute). Rats are pithed by passing a steel rod through the right orbit and down the entire length of the spinal column. The rod is left in position for the duration of the experiment. Pulsatile arterial blood pressure is measured from a cannulated carotid artery using a Stathamtransducer (P231D). Mean arterial blood pressure is calculated as diastolic pressure plus 1/3 pulse pressure. Drug solutions are administered i.v. through a catheter placed in a jugular vein. Arterial blood pressure is recorded on a multichannel oscillograph (Beckman, model R511A).
Groups of pithed rats, usually 4-6/group, are pretreated i.v. with a dose of test compound or vehicle (control experiments) 15 minutes prior to leukotriene D4 challenge (10 μg/kg, i.v.). Usually 3-4 doses of the test compound are evaluated in a given study. Blood pressure responses to leukotriene D4 in control and drug-treated pithed rats are then compared and an ED50 dose of antagonist is estimated. ED50 (95% confidence interval) is the calculated dose of antagonist (mg/kg, i.v.) required to decrease the pressor response to leukotriene D4 by 50%.
The ED50 values of selected final products of Formula I are set forth below in Table 2.

-log IC50 [1] | Compound | ED50 [2] [mg/kg]
6.68 | CCCc1c(OCCCCc2nnn(CC(=O)O)n2)ccc(C(C)=O)c1O [A] | > 30
5.88 | CCCc1c(OCCCCc2nnnn2CC(=O)O)ccc(C(C)=O)c1O [B] | > 30
5.82 | CCCc1c(OCCCc2nnn(CC(=O)O)n2)ccc(C(C)=O)c1O [C] | –
5.95 | CCCc1c(OCCCc2nnnn2CC(=O)O)ccc(C(C)=O)c1O [D] | –
6.83 | CCCc1c(OCCCCCCc2nnn(CC(=O)O)n2)ccc(C(C)=O)c1O [E] | > 30
7.65 | CCCc1c(OCCCCc2nnn(CCCCc3nnn[nH]3)n2)ccc(C(C)=O)c1O [Example 23A, 5-[4-(4-Acetyl-3-hydroxy-2-(n-propyl)phenoxy)butyl]-2[4-(1H-tetrazol-5-yl)butyl]-2H-tetrazole] | 7.5
6.14 | CCCc1c(OCCCCc2nnnn2CCCCC(=O)O)ccc(C(C)=O)c1O [Example 24] | –
7.42 | CCCc1c(OCCCCc2nnn(CCCc3nn[nH]n3)n2)ccc(C(C)=O)c1O [Example 25] | 8.4
7.63 | CCCc1c(OCCCCc2nnn(CCCCCCc3nn[nH]n3)n2)ccc(C(C)=O)c1O [Example 26, 5-4-(4-Acetyl-3-hydroxy-2-(n-propyl)phenoxybutyl]-2-[6-(1H-tetrazol-5-yl)hexyl]-2H-tetrazole] | 18.6
7.05 | CCCc1c(OCCCCc2nnn(CCCCCCC(=O)O)n2)ccc(C(C)=O)c1O [Example 27, 5-[4-(4-Acetyl-3-hydroxy-2-propylphenoxy)butyl]-2H-tetrazole-2-(7-heptanoicacid)] | 12.7
7.57 | CCCc1c(OCCCCc2nnn(CCCCCc3nnn[nH]3)n2)ccc(C(C)=O)c1O [Example 28, 5-[4-(4-Acetyl-3-hydroxy-2-(n-propyl)phenoxy)butyl]-2-[5-(1H-tetrazol-5-yl)pentyl]-2H-tetrazole] | 9.7
7.35 | CCCc1c(OCCCCc2nnn(CCCCCC(=O)O)n2)ccc(C(C)=O)c1O [Example 29] | 8.7
7.54 | CCCc1c(OCCCCc2nnn(Cc3ccc(-c4nn[nH]n4)cc3)n2)ccc(C(C)=O)c1O [Example 30] | 16.8
6.30 | CCCc1c(OCCCCc2nnnn2Cc2ccc(C(=O)O)cc2)ccc(C(C)=O)c1O [Example 33, 5-[4-(4-Acetyl-3-hydroxy-2-(n-propyl)phenoxy)butyl]-1H-tetrazole-1-[para-methylenebenzoic acid]] | –
7.52 | CCCc1c(OCCCCc2nnn(Cc3cccc(-c4nnn[nH]4)c3)n2)ccc(C(C)=O)c1O [Example 34, 5-[4-(4-Acetyl-3-hydroxy-2-(n-propyl)phenoxy)butyl]-2-[meta-(1H-tetrazol-5-yl)benzyl]-2H-tetrazole] | 25.5
7.15 | CCCc1c(OCCCCc2nnn(Cc3cccc(C(=O)O)c3)n2)ccc(C(C)=O)c1O [Example 35, 5-[4-(4-Acetyl-3-hydroxy-2-(n-propyl)phenoxy)butyl]-2H-tetrazole-2-(α-methylene-m-benzoic acid)] | 27.5
6.62 | CCCc1c(OCCCCCc2nnn(CCCc3nn[nH]n3)n2)ccc(C(C)=O)c1O [Example 38] | –
6.37 | CCCc1c(OCCCCCc2nnn(CCCC(=O)O)n2)ccc(C(C)=O)c1O [Example 39, 5-[5-(Acetyl-3-hydroxy-2-(n-propyl)phenoxy)pentyl]-2-[4-butanoic acid]-2H-tetrazole] | 25.8

-log IC50 [1] | Compound | ED50 [2] [mg/kg]
6.83 | CCCc1c(OCCCCCc2nnn(CCCCc3nnn[nH]3)n2)ccc(C(C)=O)c1O [Example 40, 5-[5-(4-Acetyl-3-hydroxy-2-(n-propyl)phenoxy)pentyl]-2-[4-(1H-tetrazol-5-yl)butyl]-2H-tetrazole] | –
6.81 | CCCc1c(OCCCCc2nnn(CCC(=O)O)n2)ccc(C(C)=O)c1O [Example 44, 5-[4-(4-Acetyl-3-hydroxy-2-propylphenoxy)butyl]-2H-tetrazol-2-(3-propionic acid)] | 10.6
5.83 | CCCc1c(OCCCCc2nnnn2CCC(=O)O)ccc(C(C)=O)c1O [Example 45, 5-[4-(4-Acetyl-3-hydroxy-2-(n-propyl)phenoxy)butyl]-1H-tetrazole-1-[3-propionic acid]] | > 30
7.12 | CCCc1c(OCCCCc2nnn(CCCC(=O)O)n2)ccc(C(C)=O)c1O [Example 46, 5-[4-(4-Acetyl-3-hydroxy-2-propylphenoxy)butyl]-2H-tetrazol-2-(4-butyric acid)] | 8.1
5.89 | CCCc1c(OCCCCc2nnnn2CCCC(=O)O)ccc(C(C)=O)c1O [Example 47, 5-[4-(4-Acetyl-3-hydroxy-2-(n-propyl)phenoxy)butyl]-1-[4-butanoic acid]-1H-tetrazole] | > 30
7.15 | CCCc1c(OCCCCc2nnn(CCCCC(=O)O)n2)ccc(C(C)=O)c1O [Example 48, 5-[4-(4-Acetyl-3-hydroxy-2-propylphenoxy)butyl]-2H-tetrazol-2-(5-pentanoic acid)] | 9.9
6.54 | CCCc1c(OCCCCCCc2nnnn2CCCC(=O)O)ccc(C(C)=O)c1O [Example 50] | 17.3
6.75 | CCCc1c(OCCCCCCc2nnn(CCCC(=O)O)n2)ccc(C(C)=O)c1O [Example 51, 5-[6-(4-Acetyl-3-hydroxy-2-(n-propyl)phenoxy)hexyl]-2H-tetrazole-2-[4-butanoic acid]] | 18.3
7.50 | CCCc1c(Oc2ccc(-c3nnn(CCCc4nn[nH]n4)n3)cc2)ccc(C(C)=O)c1O [Example 59] | –
7.26 | CCCc1c(Oc2ccc(-c3nnn(CCCC(=O)O)n3)cc2)ccc(C(C)=O)c1O [Example 60, 5-[para-(4-Acetyl-3-hydroxy-2-(n-propyl)phenoxy)phenyl]-2H-tetrazole-2-[4-butanoic acid]] | –
5.20 | CCCc1c(OCCCc2nnnn2CCCCC(=O)O)ccc(C(C)=O)c1O [Example 61, 5-[3-(4-Acetyl-3-hydroxy-2-(n-propyl)phenoxy)propyl]-1H-tetrazole-1-[5-pentanoic acid]] | –
6.47 | CCCc1c(OCCCc2nnn(CCCCC(=O)O)n2)ccc(C(C)=O)c1O [Example 62, 5-[3-(4-Acetyl-3-hydroxy-2-propylphenoxy)-propyl]-2H-tetrazol-2-(5-pentanoic acid)] | –
7.51 | CCCc1c(OCCCCn2nnc(CCCC(=O)O)n2)ccc(C(C)=O)c1O [Example 64, 2-[4-(4-Acetyl-3-hydroxy-2-(n-propyl)phenoxy)-butyl]-2H-tetrazole-5-butanoic acid] | –
6.18 | CCCc1c(OCCCCn2nnnc2CCCC(=O)O)ccc(C(C)=O)c1O [Example 65, 1-4-(4-acetyl-3-hydroxy-2-(n-propylphenoxy)butyl]-1H-tetrazole-5-butanoic acid] | –
7.25 | CCCc1c(OCCCCn2nnc(Cc3ccc(C(=O)O)cc3)n2)ccc(C(C)=O)c1O [Example 67, 4-[[2-[4-(4-Acetyl-3-hydroxy-2-(n-propyl)phenoxy)butyl]-2H-tetrazol-5-yl]methyl]benzoic acid] | –
6.66 | CCCc1c(OCCCCn2nnnc2Cc2ccc(C(=O)O)cc2)ccc(C(C)=O)c1O [Example 68] | –
6.59 | CCCc1c(OCCCCCCc2nnnn2CC(=O)O)ccc(C(C)=O)c1O [F] | 27.1
6.3 | CCCc1c(OCCCCCc2nnn(CC(=O)O)n2)ccc(C(C)=O)c1O [G] | > 30
